Read-outs that look alike come from different tables or passages of the source.
What was measured:
Assay type in all cases: biochemical
[1] = molecular target: 320 wild-type protein kinases (Homo sapiens, UniProt P10721); settings: KIT, singlicate
Text: (§1) Table S4. Profiling of two compounds at two concentrations against 320 wild-type protein kinases; singlicate measurement; Residual activities (% of control).

[2] = molecular target: 320 wild-type protein kinases (Homo sapiens, UniProt P19525); settings: singlicate
Chain of 320 wild-type protein kinases (Homo sapiens, UniProt P19525) (P19525 whole entry): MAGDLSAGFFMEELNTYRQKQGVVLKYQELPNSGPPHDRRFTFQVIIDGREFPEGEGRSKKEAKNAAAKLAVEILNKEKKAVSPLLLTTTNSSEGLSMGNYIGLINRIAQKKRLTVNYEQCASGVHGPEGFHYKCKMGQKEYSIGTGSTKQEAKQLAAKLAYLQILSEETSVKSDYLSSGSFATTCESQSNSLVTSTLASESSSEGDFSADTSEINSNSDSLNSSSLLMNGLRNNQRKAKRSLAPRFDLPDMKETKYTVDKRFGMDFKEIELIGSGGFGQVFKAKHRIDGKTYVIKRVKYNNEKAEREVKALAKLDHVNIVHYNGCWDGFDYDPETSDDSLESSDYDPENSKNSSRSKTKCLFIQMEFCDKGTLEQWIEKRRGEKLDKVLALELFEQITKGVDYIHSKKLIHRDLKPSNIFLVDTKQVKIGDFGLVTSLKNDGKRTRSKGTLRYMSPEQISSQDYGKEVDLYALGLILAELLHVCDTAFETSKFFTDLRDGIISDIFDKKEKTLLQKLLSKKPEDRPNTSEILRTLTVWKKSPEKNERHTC
Text: as §1

[3] = molecular target: 320 wild-type protein kinases (Homo sapiens, UniProt P27037); settings: ACV-R2A, singlicate
Chain of 320 wild-type protein kinases (Homo sapiens, UniProt P27037) (P27037 20-513): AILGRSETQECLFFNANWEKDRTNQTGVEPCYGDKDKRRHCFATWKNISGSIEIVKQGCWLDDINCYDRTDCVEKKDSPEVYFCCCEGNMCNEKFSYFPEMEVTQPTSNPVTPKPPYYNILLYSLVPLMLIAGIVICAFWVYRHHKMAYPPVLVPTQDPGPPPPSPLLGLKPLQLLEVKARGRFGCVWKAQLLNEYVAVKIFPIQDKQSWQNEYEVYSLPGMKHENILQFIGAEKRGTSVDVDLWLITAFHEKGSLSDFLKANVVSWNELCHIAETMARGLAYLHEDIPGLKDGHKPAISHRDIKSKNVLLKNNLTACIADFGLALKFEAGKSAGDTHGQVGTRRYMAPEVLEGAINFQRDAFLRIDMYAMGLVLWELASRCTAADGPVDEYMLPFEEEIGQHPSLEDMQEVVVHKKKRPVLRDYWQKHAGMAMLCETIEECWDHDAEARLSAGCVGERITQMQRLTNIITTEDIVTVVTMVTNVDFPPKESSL
Text: as §1

[4] = molecular target: T1, 320 wild-type protein kinases (Homo sapiens, UniProt P36896); settings: ACV-R1B, singlicate
T1 sequence (P36896 24-505): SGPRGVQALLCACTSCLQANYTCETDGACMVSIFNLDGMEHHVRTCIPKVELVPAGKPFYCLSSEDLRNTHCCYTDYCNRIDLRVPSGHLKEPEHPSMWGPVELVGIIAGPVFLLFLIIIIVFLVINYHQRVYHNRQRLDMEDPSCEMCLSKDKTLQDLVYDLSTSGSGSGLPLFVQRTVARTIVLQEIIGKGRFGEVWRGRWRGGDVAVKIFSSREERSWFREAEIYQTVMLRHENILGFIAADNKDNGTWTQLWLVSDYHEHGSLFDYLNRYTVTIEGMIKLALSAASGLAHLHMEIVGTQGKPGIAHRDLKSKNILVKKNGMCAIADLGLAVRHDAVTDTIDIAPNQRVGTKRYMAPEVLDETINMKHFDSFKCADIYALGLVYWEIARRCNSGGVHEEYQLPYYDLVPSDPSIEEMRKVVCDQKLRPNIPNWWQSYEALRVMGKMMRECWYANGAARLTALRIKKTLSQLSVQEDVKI
Text: as §1

[5] = molecular target: 320 wild-type protein kinases (Homo sapiens, UniProt P37023); settings: singlicate
Chain of 320 wild-type protein kinases (Homo sapiens, UniProt P37023) (P37023 22-503): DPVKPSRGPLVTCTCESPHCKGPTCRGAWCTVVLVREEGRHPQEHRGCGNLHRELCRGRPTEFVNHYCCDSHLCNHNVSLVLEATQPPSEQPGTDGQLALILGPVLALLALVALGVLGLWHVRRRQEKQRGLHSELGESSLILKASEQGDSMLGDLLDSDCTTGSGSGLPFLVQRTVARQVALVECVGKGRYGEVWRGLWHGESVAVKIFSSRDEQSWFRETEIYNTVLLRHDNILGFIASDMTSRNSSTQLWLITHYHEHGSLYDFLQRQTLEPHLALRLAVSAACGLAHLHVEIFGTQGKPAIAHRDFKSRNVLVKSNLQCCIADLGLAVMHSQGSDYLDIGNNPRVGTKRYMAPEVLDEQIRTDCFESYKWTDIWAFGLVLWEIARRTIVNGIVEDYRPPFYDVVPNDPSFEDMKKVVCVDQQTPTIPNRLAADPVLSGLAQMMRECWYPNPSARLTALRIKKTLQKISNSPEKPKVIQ
Text: as §1

[6] = molecular target: T2, 320 wild-type protein kinases (Homo sapiens, UniProt Q9NR20); settings: singlicate
T2 sequence (Q9NR20 1-520): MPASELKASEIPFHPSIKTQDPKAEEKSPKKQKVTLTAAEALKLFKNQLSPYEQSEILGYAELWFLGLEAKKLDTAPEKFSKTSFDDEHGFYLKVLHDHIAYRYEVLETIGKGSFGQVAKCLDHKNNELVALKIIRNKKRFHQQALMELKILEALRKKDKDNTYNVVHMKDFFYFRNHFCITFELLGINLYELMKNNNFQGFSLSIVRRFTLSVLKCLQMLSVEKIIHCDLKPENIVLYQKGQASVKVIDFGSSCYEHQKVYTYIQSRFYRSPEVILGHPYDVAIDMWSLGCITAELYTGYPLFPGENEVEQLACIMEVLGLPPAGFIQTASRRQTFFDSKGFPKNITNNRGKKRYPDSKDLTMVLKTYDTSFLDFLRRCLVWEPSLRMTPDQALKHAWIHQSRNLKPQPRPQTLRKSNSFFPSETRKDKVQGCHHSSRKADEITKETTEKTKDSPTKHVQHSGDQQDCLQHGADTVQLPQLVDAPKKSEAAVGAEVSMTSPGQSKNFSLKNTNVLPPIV
Text: as §1

[7] = molecular target: T3, 320 wild-type protein kinases (Homo sapiens, UniProt Q9UEE5); settings: kinase STK17A, singlicate
T3 sequence (Q9UEE5 1-414): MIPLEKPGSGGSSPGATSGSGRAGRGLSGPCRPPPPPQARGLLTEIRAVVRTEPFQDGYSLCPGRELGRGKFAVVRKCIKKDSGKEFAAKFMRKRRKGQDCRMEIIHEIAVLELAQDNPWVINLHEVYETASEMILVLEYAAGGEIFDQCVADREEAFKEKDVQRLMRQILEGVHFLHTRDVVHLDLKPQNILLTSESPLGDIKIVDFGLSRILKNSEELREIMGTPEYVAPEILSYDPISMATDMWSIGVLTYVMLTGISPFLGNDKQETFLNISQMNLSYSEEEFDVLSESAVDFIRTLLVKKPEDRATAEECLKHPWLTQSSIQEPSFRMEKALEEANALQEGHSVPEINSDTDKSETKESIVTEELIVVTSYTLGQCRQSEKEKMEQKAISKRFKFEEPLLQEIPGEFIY
Text: as §1

[8] = molecular target: T4, 320 wild-type protein kinases (Homo sapiens, UniProt Q9UHD2); settings: kinase TBK1, singlicate
T4 sequence (Q9UHD2 1-729): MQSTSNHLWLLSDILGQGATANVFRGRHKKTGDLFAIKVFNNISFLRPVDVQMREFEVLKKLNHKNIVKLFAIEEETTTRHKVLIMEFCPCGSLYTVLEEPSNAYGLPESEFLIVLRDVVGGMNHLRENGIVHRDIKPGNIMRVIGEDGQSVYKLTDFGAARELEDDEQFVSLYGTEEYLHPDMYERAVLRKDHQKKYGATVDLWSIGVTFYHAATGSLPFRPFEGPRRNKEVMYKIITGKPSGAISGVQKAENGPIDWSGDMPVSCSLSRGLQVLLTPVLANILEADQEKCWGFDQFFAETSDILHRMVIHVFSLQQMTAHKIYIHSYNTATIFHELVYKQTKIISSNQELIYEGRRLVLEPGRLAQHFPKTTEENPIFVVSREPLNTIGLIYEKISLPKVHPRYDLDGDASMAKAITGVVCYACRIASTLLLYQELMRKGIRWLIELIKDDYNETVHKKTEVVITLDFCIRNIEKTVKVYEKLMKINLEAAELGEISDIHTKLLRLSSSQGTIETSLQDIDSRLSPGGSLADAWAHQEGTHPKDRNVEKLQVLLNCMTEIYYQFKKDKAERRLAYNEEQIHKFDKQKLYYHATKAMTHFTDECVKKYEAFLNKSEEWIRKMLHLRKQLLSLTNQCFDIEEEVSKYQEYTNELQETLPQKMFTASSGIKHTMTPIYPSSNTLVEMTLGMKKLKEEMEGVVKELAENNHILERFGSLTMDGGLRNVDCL
Text: as §1

[9] = molecular target: 320 wild-type protein kinases (Homo sapiens, UniProt Q9Y6M4); settings: singlicate
Chain of 320 wild-type protein kinases (Homo sapiens, UniProt Q9Y6M4) (Q9Y6M4 whole entry): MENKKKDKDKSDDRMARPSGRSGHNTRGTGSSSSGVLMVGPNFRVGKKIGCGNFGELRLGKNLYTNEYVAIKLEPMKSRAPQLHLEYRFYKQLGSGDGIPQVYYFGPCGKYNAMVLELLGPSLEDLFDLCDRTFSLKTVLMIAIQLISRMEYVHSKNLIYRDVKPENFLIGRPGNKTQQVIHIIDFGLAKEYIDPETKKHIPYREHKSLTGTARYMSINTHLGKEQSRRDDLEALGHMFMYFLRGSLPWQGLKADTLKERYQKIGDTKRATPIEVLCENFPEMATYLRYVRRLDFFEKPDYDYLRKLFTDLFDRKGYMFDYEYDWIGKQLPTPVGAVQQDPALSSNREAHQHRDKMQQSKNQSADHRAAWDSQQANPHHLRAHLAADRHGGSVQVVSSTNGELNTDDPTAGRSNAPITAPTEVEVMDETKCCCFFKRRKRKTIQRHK
Text: as §1

Chain of 320 wild-type protein kinases (Homo sapiens, UniProt P10721) (P10721 26-976): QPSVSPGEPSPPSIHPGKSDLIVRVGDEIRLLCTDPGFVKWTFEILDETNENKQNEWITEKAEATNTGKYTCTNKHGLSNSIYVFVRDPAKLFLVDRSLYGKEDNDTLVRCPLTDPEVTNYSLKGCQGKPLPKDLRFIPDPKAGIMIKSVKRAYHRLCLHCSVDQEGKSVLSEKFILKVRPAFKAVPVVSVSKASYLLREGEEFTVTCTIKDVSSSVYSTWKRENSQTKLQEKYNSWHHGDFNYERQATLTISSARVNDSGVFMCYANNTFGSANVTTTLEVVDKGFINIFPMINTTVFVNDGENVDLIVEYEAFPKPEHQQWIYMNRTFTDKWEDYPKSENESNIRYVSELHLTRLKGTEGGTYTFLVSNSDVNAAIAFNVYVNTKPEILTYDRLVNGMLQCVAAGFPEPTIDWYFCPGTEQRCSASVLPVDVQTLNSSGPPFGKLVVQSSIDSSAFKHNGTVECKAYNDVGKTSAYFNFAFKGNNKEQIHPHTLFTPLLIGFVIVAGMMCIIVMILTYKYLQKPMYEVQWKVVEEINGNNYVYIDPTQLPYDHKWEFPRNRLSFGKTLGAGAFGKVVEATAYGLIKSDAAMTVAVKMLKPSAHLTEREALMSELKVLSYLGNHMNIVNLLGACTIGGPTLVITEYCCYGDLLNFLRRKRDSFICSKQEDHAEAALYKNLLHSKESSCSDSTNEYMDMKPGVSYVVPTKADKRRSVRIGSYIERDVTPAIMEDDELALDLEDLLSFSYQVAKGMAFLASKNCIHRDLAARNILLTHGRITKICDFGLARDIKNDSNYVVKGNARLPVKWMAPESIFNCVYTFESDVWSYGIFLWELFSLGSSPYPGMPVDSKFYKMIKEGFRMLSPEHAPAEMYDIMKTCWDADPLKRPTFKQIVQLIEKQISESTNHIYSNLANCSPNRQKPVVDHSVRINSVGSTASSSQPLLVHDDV

**Q.** With `C#Cc1cc(Nc2ncnc3cc(I)ccc23)ccc1Cl` [Compound 41] as the compound, how does the Residual activity ([1]; 1.0E-06 M) read?
**A.** The Residual activity was 121 % of control.

**Q.** What about the Residual activity ([1]; 1.0E-07 M) of the same compound?
**A.** Its Residual activity is 128 % of control.

**Q.** And the Residual activity ([2]; EIF2AK2, 1.0E-06 M)?
**A.** Its Residual activity is 58 % of control.

**Q.** And the Residual activity ([2]; EIF2AK2, 1.0E-07 M)?
**A.** Its Residual activity is 72 % of control.

**Q.** And the Residual activity ([3]; 1.0E-06 M)?
**A.** The Residual activity was 92 % of control.

**Q.** What about the Residual activity ([3]; 1.0E-07 M) of the same compound?
**A.** Its Residual activity is 96 % of control.

**Q.** What about the Residual activity ([4]; 1.0E-06 M) of the same compound?
**A.** Its Residual activity is 126 % of control.

**Q.** What about the Residual activity ([4]; 1.0E-07 M) of the same compound?
**A.** Its Residual activity is 105 % of control.

**Q.** And the Residual activity ([5]; ACV-RL1, 1.0E-06 M)?
**A.** Its Residual activity is 105 % of control.

**Q.** And the Residual activity ([5]; ACV-RL1, 1.0E-07 M)?
**A.** The Residual activity was 102 % of control.

**Q.** And the Residual activity ([6]; DYRK4, 1.0E-06 M)?
**A.** The Residual activity was 96 % of control.

**Q.** And the Residual activity ([6]; DYRK4, 1.0E-07 M)?
**A.** The Residual activity was 99 % of control.

**Q.** What about the “Residual activity, STK17A” value ([7]; assay conc. 1.0E-06 M) of the same compound?
**A.** The value was 103 % of control.

**Q.** What about the “Residual activity, STK17A” value ([7]; assay conc. 1.0E-07 M) of the same compound?
**A.** Its value is 104 % of control.

**Q.** And the “Residual activity, TBK1” value ([8]; assay conc. 1.0E-06 M)?
**A.** Its value is 98 % of control.

**Q.** What about the “Residual activity, TBK1” value ([8]; assay conc. 1.0E-07 M) of the same compound?
**A.** The value was 106 % of control.

**Q.** What about the Residual activity ([9]; CK1-gamma3, 1.0E-06 M) of the same compound?
**A.** The Residual activity was 118 % of control.

**Q.** What about the Residual activity ([9]; CK1-gamma3, 1.0E-07 M) of the same compound?
**A.** The Residual activity was 121 % of control.

**Q.** With `C#Cc1cc(Nc2ncnc3cc(OC)c(OC)cc23)ccc1Cl` [Compound 45] as the compound, how does the Residual activity ([1]; 1.0E-06 M) read?
**A.** The Residual activity was 105 % of control.

**Q.** And the Residual activity ([1]; 1.0E-07 M)?
**A.** Its Residual activity is 124 % of control.

**Q.** And the Residual activity ([2]; EIF2AK2, 1.0E-06 M)?
**A.** Its Residual activity is 77 % of control.

**Q.** And the Residual activity ([2]; EIF2AK2, 1.0E-07 M)?
**A.** Its Residual activity is 77 % of control.

**Q.** And the Residual activity ([3]; 1.0E-06 M)?
**A.** Its Residual activity is 96 % of control.

**Q.** And the Residual activity ([3]; 1.0E-07 M)?
**A.** The Residual activity was 101 % of control.

**Q.** And the Residual activity ([4]; 1.0E-06 M)?
**A.** The Residual activity was 128 % of control.

**Q.** And the Residual activity ([4]; 1.0E-07 M)?
**A.** The Residual activity was 99 % of control.

**Q.** And the Residual activity ([5]; ACV-RL1, 1.0E-06 M)?
**A.** The Residual activity was 106 % of control.

**Q.** What about the Residual activity ([5]; ACV-RL1, 1.0E-07 M) of the same compound?
**A.** Its Residual activity is 110 % of control.

**Q.** And the Residual activity ([6]; DYRK4, 1.0E-06 M)?
**A.** Its Residual activity is 97 % of control.

**Q.** And the Residual activity ([6]; DYRK4, 1.0E-07 M)?
**A.** The Residual activity was 116 % of control.

**Q.** What about the “Residual activity, STK17A” value ([7]; assay conc. 1.0E-06 M) of the same compound?
**A.** The value was 83 % of control.

**Q.** And the “Residual activity, STK17A” value ([7]; assay conc. 1.0E-07 M)?
**A.** Its value is 102 % of control.

**Q.** What about the “Residual activity, TBK1” value ([8]; assay conc. 1.0E-06 M) of the same compound?
**A.** The value was 89 % of control.

**Q.** And the “Residual activity, TBK1” value ([8]; assay conc. 1.0E-07 M)?
**A.** The value was 106 % of control.

**Q.** And the Residual activity ([9]; CK1-gamma3, 1.0E-06 M)?
**A.** The Residual activity was 123 % of control.

**Q.** And the Residual activity ([9]; CK1-gamma3, 1.0E-07 M)?
**A.** Its Residual activity is 116 % of control.

— paper PMC9329436, “Optimization of the 4-anilinoquin(az)oline scaffold as epidermal growth factor receptor (EGFR) inhibitors for chordoma utilizing a toxicology profiling assay platform” (Scientific Reports, 2022)
